Measurements: patent US8633216B2, “Imidazo[1,5-a]pyridine derivatives, method for preparing same and pharmaceutical compositions containing same” (Sanofi, priority 2005, dated 2014)
Counter-ions that a name gives are not always drawn.

tested on: not given; assay: not given; details: not given

| melting point | SMILES |
| --- | --- |
| 302 °C | COc1cc(C(=O)c2ncc3cc(OCC(=O)O)ccn23)ccc1N (as salt: Na) (hydrate or solvate) |
| 244 °C | COc1cc(C(=O)c2ncc3ccc(C(=O)N[C@@H](CO)C(=O)O)cn23)ccc1N (as salt: Na) (hydrate or solvate) |
| 268 °C | COc1cc(C(=O)c2ncc3cc(C(=O)O)ccn23)ccc1N (as salt: HCl) (hydrate or solvate) |
| 166 °C | COC(=O)c1cccc(-c2nc(C(=O)c3ccc(N)c(OC)c3)n3ccccc23)c1 |
| 192 °C | COC(=O)[C@@H](C)NC(=O)c1ccn2c(C(=O)c3ccc(N)c(OC)c3)ncc2c1 (as salt: HCl) (hydrate or solvate) |
| 259 °C | COc1cc(C(=O)c2ncc3c(C(=O)O)cccn23)ccc1N (as salt: Na) |
| 179 °C | COC(=O)c1ccc2cnc(C(=O)c3ccc(N)c(OC)c3)n2c1 |
| 218 °C | COC(=O)c1ccc2cnc(C(=O)c3ccc([N+](=O)[O-])c(OC)c3)n2c1 |

The next lines start with the molecule.

| SMILES | melting point |
| --- | --- |
| COc1cccc(-c2nc(C(=O)c3ccc(N)c(OC)c3)n3ccc(C(=O)O)cc23)c1 (as salt: Na) (hydrate or solvate) | 307 °C |
| COc1cc(C(=O)c2nc(-c3cccc(F)c3)c3ccccn23)ccc1N (as salt: HCl) (hydrate or solvate) | 228 °C |
| COc1cccc(C(=O)Nc2nc(C(=O)c3ccc(N)c(OC)c3)n3ccccc23)c1 (as salt: HCl) (hydrate or solvate) | 199 °C |
| COc1cc(C(=O)c2ncc3c(C(=O)O)cccn23)ccc1[N+](=O)[O-] (as salt: Na) | 332 °C |
| COc1cc(C(=O)c2ncc3cc(C(=O)O)ccn23)ccc1[N+](=O)[O-] | > 350 °C |
| COc1cc(C(=O)c2nc(C#N)c3ccccn23)ccc1N (as salt: HCl) | 224 °C |
| COc1cc(C(=O)c2nc(Br)c3ccccn23)ccc1N (as salt: HCl) (hydrate or solvate) | 204 °C |

tested on: level of circulating platelets; assay: Effect on thrombopenia induced by carboplatin in the mouse; type: in vivo; details: 150 mg/kg intraperitoneally, balbC mice, at nadir
From the text: Thrombopenia remains a pathology for which few effective treatments exist apart from the transfusion of platelet concentrates and thrombopoietin (Kaushansky, K., New Eng. J. Med., (1998), 339, pp. 746-754).
Anticancer chemotherapy constitutes one of the major causes of thrombopenia. One of the agents of chemotherapy, carboplatin, has been widely used to induce thrombopenia in the mouse and to be able thus to characterize the effect of compounds capable of improving the level of platelets, such as, for example, thrombopoietin (Hokom M. M. et al., Blood, (1995), 86, pp. 4486-4492).
150 mg/kg of carboplatin were administered intraperitoneally to balbC mice having a weight of 20 g. A blood sample is taken periodically by retro-orbital puncture and the level of circulating platelets is determined by a hematology automated machine (MS9™ from Melet-Schloesing Laboratoires, Cergy-Pontoise, France). […]
The compounds according to the invention or their solvent (a blank-control) are administered by the oral route for 5 days, the treatment being begun 7 days before the administration of carboplatin. The experiments are carried out on batches comprising 10-12 mice and the results are expressed as a mean±standard error. […]

| SMILES | reduction in the level of circulating platelets |
| --- | --- |
| N.N.O=C([O-])C1(C(=O)[O-])CCC1.[Pt+2] [carboplatin] | 50-60% |
